Assay results published in patent US20240261267A1, “METHODS FOR TREATING MULTIPLE SCLEROSIS” (Vanda Pharmaceuticals Inc., priority 2021, published 2024).

What was measured:
[1] = comparison given in brackets; cited from earlier work
[2] = test system: adult subjects with relapsing MS; assay: Phase III OPTIMUM study, safety and treatment discontinuation
Description: A prospective, multicenter, randomized, double-blind, active controlled, parallel-group, phase III, superiority study (Phase III OPTIMUM study) was conducted.
Subjects had active disease evidenced by one or more MS attacks with onset within the period of 12 to 1 months prior to baseline EDSS assessment, or by two or more MS attacks with onset within the 24 to 1 months prior to baseline EDSS assessment, or with one or more gadolinium-enhancing (Gd+) lesion(s) of the brain on an MRI performed within 6 months prior to baseline EDSS assessment. Enrolled subjects were ambulatory with an EDSS score of up to 5.5 inclusive. The subjects were treatment-naïve (i.e., no MS disease-modifying therapy received at any time in the past) or previously treated with interferon (IFN) β-1a, IFN β-1b, glatiramer acetate, dimethyl fumarate, or natalizumab.
The treatment period consisted of an up-titration period (from Day 1 to 14) and a maintenance period (Day 15 until EOT).
To reduce the first-dose effect of ponesimod, an up-titration scheme was implemented from Day 1 to Day 14: • Days 1 and 2; 2 mg. • Days 3 and 4; 3 mg. • Days 5 and 6; 4 mg. • Day 7; 5 mg. • Day 8; 6 mg. • Day 9; 7 mg. • Day 10; 8 mg. • Day 11; 9 mg. • Days 12, 13, and 14; 10 mg. • Day 15 until EOT; 20 mg.
The Safety Set (SAF) included all randomized subjects who received at least one dose of study treatment. Subjects were analyzed based on actual treatment taken, not randomized treatment.

[3] = test system: primary mouse OPCs; assay: agarose drop migration assay; assay type: cell-based; details: 3000 nM; after 5 days; normalized to 0.1% DMSO
Description: The effects of ponesimod, a selective S1P1 receptor agonist, and A971432, a selective S1P5 receptor agonist, on oligodendrocyte precursor cell (OPC) migration and differentiation were evaluated. Nine concentrations were tested (logarithmic dilutions ranging from 0.3 nM to 3000 nM, n=6 per concentration). Fingolimod phosphate (P-FTY720, 3000 nM, n=6) was included as a positive control, 0.1% DMSO was included (min.one/plate) as a negative control. Primary mouse OPCs were harvested on postnatal day 0 or 1 and mixed glia cultures were maintained for 14 days. Primary OPCs were then purified using the shake-off method, and used for either a migration assay, or a differentiation assay, as detailed below. To harvest primary mouse OPCs, cortices are isolated from mouse pups on postnatal day 0 or 1 and placed in ice-cold Dulbecco's Modified Eagle Medium (DMEM) (Sigma Aldrich, Overijse, BE). The cortices are homogenized and centrifuged for 5 minutes at 300 G. The supernatant is removed, and a papain solution is added for 30 minutes (125 uL DMEM solution per brain containing 20 units/ml papain and 40 μg/ml DNase, at 37 degrees). Digestion is inactivated by adding 9 ml cold DMEM. The solution is then centrifuged for 5 minutes at […]. The supernatant is carefully removed, and the pellet is resuspended in 2-5 ml culture medium (DMEM with 10% fetal calf serum (Biowest, Nuaillé, FR) and 1% pen/strep (Sigma Aldrich, Overijse, BE)). […] Cell suspension is divided over PLL (Sigma Aldrich, Overijse, BE)-coated flasks (2 brains per flask) and DMEM is added to a final volume of 10 ml. DMEM is replaced on day 4, 7, and 11. On day 7 and 11, insulin (Sigma Aldrich, Overijse, BE) is added to the medium (5μg/ml). On day 14, OPCs are separated from astrocytes by the shake-off method: flasks are placed on a shaker for 45 minutes at 75 rpm (37 degrees). […] The extent of cell migration is then measured after 5 days using Incucyte imaging analysis and fluorescent endpoint staining. For each well, the 15-20 cells that migrated the furthest away from the agarose drop are measured and averaged. […]

[4] = Safety Set, ponesimod 20 mg, teriflunomide 14 mg
[5] = ponesimod 20 mg, teriflunomide 14 mg

## CCCCCCCCc1ccc(CCC(N)(CO)CO)cc1 [fingolimod]
[1]
  ECG HR effect: nadir: ~6 h

## CCc1cc(/C(C)=N/OCc2ccc(C3CCCCC3)c(C(F)(F)F)c2)ccc1CN1CC(C(=O)O)C1 [siponimod]
[1]
  ECG HR effect: nadir: 3 to 4 h

## C/C(O)=C(\C#N)C(=O)Nc1ccc(C(F)(F)F)cc1 [teriflunomide]
[2]; Day 1, all with pre-treatment HR<55 bpm
  subjects with asymptomatic post-dose HR≤40 bpm: none
[2]; [4]
  AEs leading to premature discontinuation of study drug, SOC Eye disorders: 0 n
  AEs leading to premature discontinuation of study drug, SOC Respiratory, thoracic and mediastinal disorders: 0 n
  AEs leading to premature discontinuation of study drug, SOC Vascular disorders: 0 n
  Subject with at least one AE leading to study drug discontinuation: 6.0%
  Subject with at least one Serious AE: 8.1%
  Subject with at least one treatment-emergent AE: 88.2%
  Treatment-emergent AESI: Hepatobiliary disorders/Liver enzyme abnormality: 14.5%
  Treatment-emergent AESI: Hypertension: 9.0%
  Treatment-emergent AESI: Pulmonary events: 2.7%
[2]; at 2-hours post dose, Day 1
  mean heart rate reduction compared to pre-dose: −1.7 bpm
[2]; on Day 1, Safety Set
  AESI heart rate and rhythm: Atrioventricular block first degree: 0 n
  AESI heart rate and rhythm: Bradycardia: 0 n
  AESI heart rate and rhythm: Bundle branch block left: 0 n
  AESI heart rate and rhythm: Bundle branch block right: 0 n
  AESI heart rate and rhythm: Defect conduction intraventricular: 0 n
  AESI heart rate and rhythm: Sinus arrhythmia: 0 n
  AESI heart rate and rhythm: Sinus bradycardia: 0 n
[2]; on Day 1, Safety Set, ponesimod arm (2 mg on Day 1), teriflunomide 14 mg
  AESI effect on heart rate and rhythm (including hypotension): Subjects with at least one AE: 0.4%
[2]; [5]
  TEAE ALT increased: 9.4%
  TEAE headache: 12.7%
  TEAE nasopharyngitis: 16.8%
  TEAE upper respiratory tract infection: 10.4%
  proportion of subjects who experienced ALT increase>3×ULN: 8.3%
  proportion of subjects who experienced ALT increase>8×ULN: 2.1%
  subjects discontinued due to AEs or tolerability related reasons: 2.5%

## fingolimod phosphate
[3]
  migration distance: significantly decreased migration distance
